According to ChEMBL document CHEMBL4406892 (Bioorg Med Chem Lett, 2019):
pIC50, pKi: −log10 of the molar value. The source made the active and inactive calls. The rule behind the calls is not given here.

Key:
[1] = target: Urokinase-type plasminogen activator (Homo sapiens, UniProt P00749)
Description: Inhibition of human kidney uPA using fluorogenic Z-Pyr-Gly-Arg-MCA as substrate measured after 15 mins by fluorometric analysis

Rattus norvegicus [2] = assay: Diuretic activity in Sprague-Dawley rat model of acetazolamide-induced diuresis assessed as increase in sodium excretion at 1.5 mg/kg, ip pretreated with acetazolamide followed by compound treatment measured after 6 hrs; type: ADME, organism-based; conditions: in vivo
Rattus norvegicus [3] = assay: Antikaliuretic activity in Sprague-Dawley rat model of acetazolamide-induced diuresis assessed as decrease in potassium secretion at 1.5 mg/kg, ip pretreated with acetazolamide followed by compound treatment measured after 6 hrs; type: ADME, organism-based; conditions: in vivo
Trypsin = Trypsin (Homo sapiens, UniProt P07477+P07478+P35030); assay: Inhibition of trypsin (unknown origin) using chromogenic H-D-Ile-[…]-L-arginine-p-nitroaniline as substrate; type: protein assay
Rattus norvegicus [4] = assay: Diuretic activity in Sprague-Dawley rat model of acetazolamide-induced diuresis assessed as increase in urine volume at 1.5 mg/kg, ip pretreated with acetazolamide followed by compound treatment measured after 6 hrs; type: ADME, organism-based; conditions: in vivo
[5] = target: Vitamin K-dependent protein C (Homo sapiens, UniProt P04070); assay: Inhibition of activated protein C (unknown origin) using chromogenic L-pyroGlu-L-Pro-L-Arg-p-nitroaniline as substrate
Chain of Vitamin K-dependent protein C (P04070 43-197 limits assumed): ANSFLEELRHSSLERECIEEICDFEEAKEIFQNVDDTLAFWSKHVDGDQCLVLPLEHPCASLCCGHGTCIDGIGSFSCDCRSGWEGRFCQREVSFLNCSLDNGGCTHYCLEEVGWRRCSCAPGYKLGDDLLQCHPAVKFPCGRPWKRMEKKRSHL
Chain of Vitamin K-dependent protein C (P04070 212-461 limits assumed): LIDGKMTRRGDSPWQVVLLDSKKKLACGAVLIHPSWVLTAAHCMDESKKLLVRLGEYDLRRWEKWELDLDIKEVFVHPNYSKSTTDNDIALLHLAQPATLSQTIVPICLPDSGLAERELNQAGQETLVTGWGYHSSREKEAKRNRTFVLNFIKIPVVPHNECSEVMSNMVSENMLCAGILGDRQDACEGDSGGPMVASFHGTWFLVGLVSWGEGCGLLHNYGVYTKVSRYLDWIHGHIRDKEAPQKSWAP

Plasma kallikrein = Plasma kallikrein (Homo sapiens, UniProt P03952)
Chain of Plasma kallikrein (P03952 20-390 limits assumed): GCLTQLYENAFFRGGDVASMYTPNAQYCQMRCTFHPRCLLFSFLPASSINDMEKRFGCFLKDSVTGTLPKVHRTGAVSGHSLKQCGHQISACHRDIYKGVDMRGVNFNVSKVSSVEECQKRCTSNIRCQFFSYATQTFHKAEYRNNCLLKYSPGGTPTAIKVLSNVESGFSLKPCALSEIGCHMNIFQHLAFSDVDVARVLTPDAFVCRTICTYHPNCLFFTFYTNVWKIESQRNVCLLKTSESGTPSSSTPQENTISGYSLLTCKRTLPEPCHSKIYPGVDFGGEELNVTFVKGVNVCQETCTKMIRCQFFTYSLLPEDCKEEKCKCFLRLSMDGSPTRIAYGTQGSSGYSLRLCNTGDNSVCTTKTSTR
Chain of Plasma kallikrein (P03952 391-638 limits assumed): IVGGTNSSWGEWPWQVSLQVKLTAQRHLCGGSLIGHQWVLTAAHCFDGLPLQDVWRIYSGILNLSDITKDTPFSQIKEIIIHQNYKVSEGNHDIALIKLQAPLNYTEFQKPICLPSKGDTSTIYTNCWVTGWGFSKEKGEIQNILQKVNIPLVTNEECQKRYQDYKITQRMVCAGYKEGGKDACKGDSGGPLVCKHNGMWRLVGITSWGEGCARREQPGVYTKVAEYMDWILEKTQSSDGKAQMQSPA
Description: Inhibition of human plasma kallikrein using chromogenic L-pyroGlu-L-Pro-L-Arg-p-nitroaniline as substrate

Coagulation factor XI = Coagulation factor XI (Homo sapiens, UniProt P03951); assay: Inhibition of factor 11a (unknown origin) using chromogenic L-pyroGlu-L-Pro-L-Arg-p-nitroaniline as substrate
Chain of Coagulation factor XI (P03951 19-387 limits assumed): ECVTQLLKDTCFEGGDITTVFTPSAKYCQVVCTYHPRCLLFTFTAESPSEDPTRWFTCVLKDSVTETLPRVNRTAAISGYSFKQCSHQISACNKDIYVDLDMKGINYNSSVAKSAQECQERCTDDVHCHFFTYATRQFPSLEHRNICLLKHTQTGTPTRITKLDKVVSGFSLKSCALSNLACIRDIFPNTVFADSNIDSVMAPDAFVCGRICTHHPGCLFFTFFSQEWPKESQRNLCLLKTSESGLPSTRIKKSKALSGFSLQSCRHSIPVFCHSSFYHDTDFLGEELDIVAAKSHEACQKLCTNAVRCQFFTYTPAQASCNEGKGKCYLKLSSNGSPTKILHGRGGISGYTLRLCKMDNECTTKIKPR
Chain of Coagulation factor XI (P03951 388-625 limits assumed): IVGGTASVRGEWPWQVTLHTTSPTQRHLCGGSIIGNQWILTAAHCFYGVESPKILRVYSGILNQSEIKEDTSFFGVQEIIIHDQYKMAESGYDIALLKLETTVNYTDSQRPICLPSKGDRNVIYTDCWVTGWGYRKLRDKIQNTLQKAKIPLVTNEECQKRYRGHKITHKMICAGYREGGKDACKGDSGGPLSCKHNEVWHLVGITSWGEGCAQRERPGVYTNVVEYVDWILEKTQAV

Coagulation factor X = Coagulation factor X (Homo sapiens, UniProt P00742); assay: Inhibition of factor Xa (unknown origin)
Chain of Coagulation factor X (P00742 41-179 limits assumed): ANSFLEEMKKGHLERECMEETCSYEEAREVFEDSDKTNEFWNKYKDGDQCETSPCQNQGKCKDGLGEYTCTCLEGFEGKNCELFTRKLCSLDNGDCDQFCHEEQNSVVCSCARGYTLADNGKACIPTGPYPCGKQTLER
Chain of Coagulation factor X (P00742 235-488 limits assumed): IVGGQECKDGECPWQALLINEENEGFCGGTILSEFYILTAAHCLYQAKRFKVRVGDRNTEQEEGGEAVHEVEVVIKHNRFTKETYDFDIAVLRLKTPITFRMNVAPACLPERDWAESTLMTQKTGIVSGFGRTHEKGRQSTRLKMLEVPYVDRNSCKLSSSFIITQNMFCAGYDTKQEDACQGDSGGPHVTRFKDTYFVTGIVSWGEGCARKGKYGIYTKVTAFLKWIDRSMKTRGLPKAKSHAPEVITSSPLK

[6] = target: Tissue-type plasminogen activator (Homo sapiens, UniProt P00750)
Chain of Tissue-type plasminogen activator (P00750 whole entry): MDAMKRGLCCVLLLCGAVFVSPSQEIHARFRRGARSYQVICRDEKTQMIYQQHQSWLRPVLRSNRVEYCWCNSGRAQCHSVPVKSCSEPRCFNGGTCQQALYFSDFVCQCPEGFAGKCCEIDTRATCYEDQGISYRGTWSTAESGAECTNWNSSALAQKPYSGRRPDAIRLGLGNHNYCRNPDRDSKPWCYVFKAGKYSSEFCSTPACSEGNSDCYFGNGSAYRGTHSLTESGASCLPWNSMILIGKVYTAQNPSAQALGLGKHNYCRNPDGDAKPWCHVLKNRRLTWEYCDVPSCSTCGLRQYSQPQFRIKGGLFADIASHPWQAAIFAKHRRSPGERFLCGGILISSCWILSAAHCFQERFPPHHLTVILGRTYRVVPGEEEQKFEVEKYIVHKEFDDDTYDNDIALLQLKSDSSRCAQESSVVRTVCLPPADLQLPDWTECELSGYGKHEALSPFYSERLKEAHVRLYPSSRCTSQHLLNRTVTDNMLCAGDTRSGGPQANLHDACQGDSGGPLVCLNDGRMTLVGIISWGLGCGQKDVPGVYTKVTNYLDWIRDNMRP
Description: Inhibition of tissue-type plasminogen activator (unknown origin) using chromogenic H-D-Ile-L-propyl-L-arginine-p-nitroaniline as substrate

HT-1080 = assay: Antimetastatic activity against luciferase-tagged human HT1080 cells xenografted in NSG mouse assessed as reduction in lung burden at 7.5 mg/kg/day, ip for 21 days by luciferase assay; type: functional, organism-based
Plasminogen = Plasminogen (Homo sapiens, UniProt P00747); assay: Inhibition of plasmin (unknown origin) using chromogenic H-D-Ile-[…]-L-arginine-p-nitroaniline as substrate
Chain of Plasminogen (P00747 97-580 limits assumed): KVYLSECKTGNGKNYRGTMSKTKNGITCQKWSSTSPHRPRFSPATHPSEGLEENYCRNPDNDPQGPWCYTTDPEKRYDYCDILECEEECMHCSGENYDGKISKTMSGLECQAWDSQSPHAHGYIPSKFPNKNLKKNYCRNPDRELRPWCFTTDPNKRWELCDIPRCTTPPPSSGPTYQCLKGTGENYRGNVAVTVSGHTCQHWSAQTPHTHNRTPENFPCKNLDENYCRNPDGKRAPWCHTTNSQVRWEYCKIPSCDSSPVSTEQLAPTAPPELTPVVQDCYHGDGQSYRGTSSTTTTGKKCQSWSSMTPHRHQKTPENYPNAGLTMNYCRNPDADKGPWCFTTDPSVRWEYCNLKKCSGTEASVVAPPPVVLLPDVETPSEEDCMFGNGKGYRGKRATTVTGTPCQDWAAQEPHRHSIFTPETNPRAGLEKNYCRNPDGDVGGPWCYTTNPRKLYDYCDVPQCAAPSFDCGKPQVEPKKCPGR
Chain of Plasminogen (P00747 581-810 limits assumed): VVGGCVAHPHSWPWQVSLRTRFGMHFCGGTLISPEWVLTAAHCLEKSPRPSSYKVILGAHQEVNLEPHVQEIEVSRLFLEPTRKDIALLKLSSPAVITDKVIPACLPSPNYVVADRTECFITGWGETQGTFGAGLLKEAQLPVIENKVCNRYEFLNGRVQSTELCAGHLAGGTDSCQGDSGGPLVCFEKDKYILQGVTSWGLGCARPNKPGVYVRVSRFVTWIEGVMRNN

Prothrombin = Prothrombin (Homo sapiens, UniProt P00734); assay: Inhibition of thrombin (unknown origin) using chromogenic H-D-Ile-[…]-L-arginine-p-nitroaniline as substrate

Structure (SMILES)	pKi [1]	further results
N=C(N)NC(=O)c1nc(-c2cc3cc(F)ccc3o2)c(N)nc1N	6.23	–
N=C(N)NC(=O)c1nc(-c2cc3ccccc3o2)c(N)nc1N	–	Activity (Rattus norvegicus [2]): Non-Toxic; Activity (Rattus norvegicus [3]): Non-Toxic; IC50 (Trypsin): > 50 µM; Activity (Rattus norvegicus [4]): Non-Toxic
Cc1ccc2oc(-c3nc(C(=O)NC(=N)N)c(N)nc3N)cc2c1	6.19	–
N=C(N)NC(=O)c1nc(-c2cc3cc(Cl)ccc3o2)c(N)nc1N	6.24	–
N=C(N)NC(=O)c1nc(-c2cc3ccccc3s2)c(N)nc1N	5.85	–
COc1ccc2cc(-c3nc(C(=O)NC(=N)N)c(N)nc3N)oc2c1	6.36	–
N=C(N)NC(=O)c1nc(Cl)c(N)nc1N [AMILORIDE]	–	pIC50 [5]: < 4.30; pIC50 (Plasma kallikrein): < 4.30; pIC50 (Coagulation factor XI): < 4.30; pIC50 (Coagulation factor X): < 4.30; pIC50 [6]: < 4.70; inhibition (HT-1080): inactive; IC50 (Trypsin): > 50 µM; pIC50 (Plasminogen): < 4.70; pIC50 (Prothrombin): < 4.70
N=C(N)NC(=O)c1nc(-c2ccccc2)c(N)nc1N	5.60	–
N=C(N)NC(=O)c1nc(-c2ccc3c(c2)CCO3)c(N)nc1N	5.83	–
N#Cc1ccc2oc(-c3nc(C(=O)NC(=N)N)c(N)nc3N)cc2c1	6.04	–
COc1ccc2oc(-c3nc(C(=O)NC(=N)N)c(N)nc3N)cc2c1	6.54	–
N=C(N)NC(=O)c1nc(-c2ccc(C(F)(F)F)cc2)c(N)nc1N	5.50	–
N=C(N)NC(=O)c1nc(-c2cccs2)c(N)nc1N	5.90	–
N=C(N)NC(=O)c1nc(-c2cc3cc(Br)ccc3o2)c(N)nc1N	5.44	–
N=C(N)NC(=O)c1nc(-c2ccc3occc3c2)c(N)nc1N	6.46	–

Now from value to compound, other results behind:

pKi [1]	Structure (SMILES)	further results
5.62	CSc1ccc(-c2nc(C(=O)NC(=N)N)c(N)nc2N)cc1	–
6.32	Cn1cc(-c2nc(C(=O)NC(=N)N)c(N)nc2N)cn1	–
5.92	COc1ccc(-c2nc(C(=O)NC(=N)N)c(N)nc2N)c(OC)n1	–
6.30	N=C(N)NC(=O)c1nc(-c2ccoc2)c(N)nc1N	–
6.69	COc1ncc(-c2nc(C(=O)NC(=N)N)c(N)nc2N)cn1	Activity (Rattus norvegicus [2]): Non-Toxic; Activity (Rattus norvegicus [3]): Non-Toxic
6.11	N=C(N)NC(=O)c1nc(-c2ccco2)c(N)nc1N	–
5.79	COc1ncc(-c2nc(C(=O)NC(=N)N)c(N)nc2N)c(OC)n1	–
